Assay results published in patent US12303479B2, “Chloride intracellular channel 1 for regulation of food intake” (The Regents of the University of California, priority 2019, dated 2025).

What was measured:
Clic1 [1] = biological target: T1, Clic1 (Mus musculus, UniProt Q9Z1Q5); experiment: Chronic IAA94 treatment in diet-induced obese mice, 23 days, alone or with Lira; type: in vivo; parameters: endogenous in cells; host or cells: whole live mice (C57B16 WT in the 7-day study); hypothalamus discussed as the site of action; conditions: daily injections, FIG. 8A
Procedure: FIGS. 8A-8I show another study on chronic IAA94 treatment. Diet-induced obese mice (fed a high fat diet for 6 weeks) received daily injections of either i) vehicle, ii) IAA94—10 mg/kg, iii) IAA94—50 mg/kg, iv) Lira, or v) combination of Lira+IAA94 (50 mg/kg). Daily food intake and body weight were monitored. Sacrifices were performed after 23 days.

Clic1 [2] = biological target: T1, Clic1; experiment: Chronic Clic1 inhibition in diet-induced obese high fat diet-fed mice, 7 days; type: in vivo, C57B16 WT mice; parameters: endogenous in cells; host or cells: whole live mice (C57B16 WT in the 7-day study); hypothalamus discussed as the site of action; conditions: IAA94 50 mg/kg IP daily
Procedure: Diet-induced obese mice (fed high fat diet for 6 weeks) were injected with IAA94 (50 mg/kg, IP, daily) or vehicle. Their daily food intake and body weight were monitored. Sacrifices were performed on day 7. […] On day 7 mice were fasted for 5 hours and then treated with IAA94 or VEH and then blood collected one hour later for measurement of leptin (FIG. 7C) GDF-15 (FIG. 7D) insulin (FIG. 7E), and glucose (FIG. 7F). FIGS. 7G-7J show hypothalamic neuropeptide levels determined by quantitative PCR detection. In FIGS. 7A-7B, P<0.05 repeated measures one-way ANOVA with Sidak's multiple comparisons test. In FIGS. 7C-7J, P<0.05 students t-test.

Clic1 [3] = biological target: T1, Clic1; experiment: Fasting and re-feeding model: food intake and hypothalamic neuropeptide expression after acute IAA94; type: in vivo, mice; parameters: endogenous in cells; host or cells: whole live mice (C57B16 WT in the 7-day study); hypothalamus discussed as the site of action
Procedure: To determine whether the modulation of Clic1 directly affected food intake, mice were treated with a specific Clic1 inhibitor, IAA94^11. Mice were fasted for 23 hours and then treated with either vehicle or IAA94 (50 mg/kg IP) and then re-fed for 1 hour. […] No changes in AgRP or Cart expression were detected.
FIGS. 1A-1C show the role of Clic1 in food intake.
FIGS. 5A-5C show acute studies in which Clic1 inhibition decreases food intake. HET/KO mice are viable, fertile and appear normal. Floxed mice are available at PMID: 20049953 Sydney. […] Male mice were injected with IAA94 (50 mg/kg) or vehicle and then refed. IAA94 (indanyloxyacetic acid 94) is a Clic1 inhibitor that blocks channels and has enzymatic properties.

Clic1 [4] = biological target: Clic1 (Homo sapiens, UniProt O00299); conditions: cited from earlier work
[5] = mice fasted 23 hours, IAA94 50 mg/kg IP, re-fed for 1 hour

weight loss on chronic treatment (Clic1 [1])	food intake (Clic1 [2]; 7 days)	reduction of body weight (Clic1 [2]; one week)	hyperphagia in response to refeeding (Clic1 [3]; IAA94 50 mg/kg, FIG. 1C)	food intake versus amount of IAA94 administered (Clic1 [3]; male mice, fasting and re-feeding model, FIG. 5C)	AgRP expression (hypothalamic) (Clic1 [3]; [5])	Cart expression (hypothalamic) (Clic1 [3]; [5])	Pome expression (hypothalamic) (Clic1 [3]; [5])	hypothalamic levels of Npy (Clic1 [3]; [5])	reduction of food intake compared with vehicle treated mice (Clic1 [3]; [5])	Compound	inhibition of Clic1 (Clic1 [4])
significant weight loss	significant reduction in food intake	~12%	decreased hyperphagia	dose dependent	No changes	No changes	increased	significant reduction	~50%	C[C@]1(C2CCCC2)Cc2cc(OCC(=O)O)c(Cl)c(Cl)c2C1=O [IAA94, R(+)-[(6,7-Dichloro-2-cyclopentyl-2,3-dihydro-2-methyl-1-oxo-1H-inden-5-yl)-oxy]acetic acid]	–
–	–	–	–	–	–	–	–	–	–	CN(C)C(=N)NC(=N)N [metformin, N,N-dimethylbiguanide]	inhibits Clic1
